Assay results as given in US20260265244A1, “HETEROCYCLIC COMPOUNDS AS STING ANTAGONISTS” (Boehringer Ingelheim International GmbH, priority 2022, published 2026).

Molecular target: T1, cGAMP binding domain of wild-type (GRR) human STING, residues 155-341 (Homo sapiens, UniProt Q86WV6, H232R)
T1 construct: His-TEV-hSTING (WT); TEV protease cleavage site (N); made in house; host or cells: E. coli BL21 DE3
Experiment: Increase of stability of STING protein against thermal denaturation, Differential Scanning Fluorimetry (DSF)
Protocol: Dye fluorescence is quenched in aqueous environment and increases upon association of the dye with the hydrophobic parts of the unfolding protein. […] The inflection point of the curve represents the “melting” temperature of the protein (Tm) which is calculated numerically using the Boltzmann equation.
Method: The thermal stability of the STING protein was measured using a specific expression construct of the cGAMP binding domain of wild-type (GRR) human STING comprising residues 155-341 and a N-terminal 8×His-tag (SEQ ID NO: 3) in assay buffer containing 20 mM Tris, 150 mM NaCl at pH7.5.
The assay uses Hard-Shell® PCR Plates 384-Well CLR/WHT (Catalog #HSP3805, BIO-RAD), Microseal® ‘B’ Adhesive Seals for PCR Plates (Catalog #MSB-1001, BIO-RAD) and was run on a CFX384 Real-Time System (Bio-Rad).
A DMSO stock solution of SYPRO orange (SIGMA S5692-500UL) was prepared.
Compound stock solutions (10 mM in DMSO) were diluted 1:2 in DMSO to an intermediate compound concentration of 5 mM and then further diluted 1:40 in assay buffer resulting in a compound concentration of 125 μM and 2.5% DMSO.
Fluorescent dye stock solution (5000×SYPRO Orange) was then mixed with target protein and buffer to a concentration of 15 uM Protein and 25×SYPRO Orange. 2 ul of this protein-dye-mixture was added to 8 ul compound solution. Final volume was 10 uL. 3-6 well positions were used as negative control (protein with 2% DMSO). The plates were prepared for duplicate measurement and centrifuged for 2 min at 1000 g. In the measurement, 160 cycles of 0.5° C. were used (temperature ramp 15 s/cycle, 15° C. to 95° C.).
Final Assay concentrations for compound characterization were as follows: 100 uM compound, 3 uM target protein, 5×SYPRO Orange, 2% DMSO in 10 ul. All dispensing steps were performed using a HamiltonStar pipetting robot (Hamilton).
Dissociation curves were processed in Bio-Rad CFX Manager. Peak type was set to “negative”. Compound codes for screen were assigned in the plate layout.
Two replicates of TM measurements were averaged, and the standard deviation was calculated. In cases of SD>1.5° C. the measurement was repeated.
The melting point (Tm) obtained for STING protein alone was subtracted from T obtained for protein incubated with ligand to generate ΔTm values.
Protein production and purification: The protein used for the biophysical experiments was a recombinant human STING protein comprising its cytosolic ectodomain. A codon optimized DNA sequence (for expression in Escherichia coli) encoding amino acid residues 155 to 341 (Swiss Prot Q86WV6) of human STING (WT) was synthesized by GeneArt (Regensburg, Germany) and inserted into a pET17b E. coli expression vector. The protein construct encodes an N-terminal 8×His-tag (SEQ ID NO: 3) followed by tobacco etch virus protease (TEV) cleavage site and the above STING gene sequence. The resulting protein sequence for the used STING variant is listed below:
For expression of recombinant human STING above construct was transformed into E. coli BL21 DE3 strain and grown in shake flasks in LB-medium at 37° C. Expression was induced by addition of isopropyl β-D-1-thiogalactopyranoside to a final concentration of 1 mM and cultures shaken overnight. Cell pellets were centrifuged and stored at −70° C. until further use. Protein was purified by cell thawing in lysis buffer (20 mM TRIS-HCl, pH 8, 300 mM NaCl, 2 mM mercaptoethanol, 20 mM imidazole, Complete Protease Inhibitor (Roche) and DNase (Roche)), followed by metal affinity purification using Ni-NTA resins and elution buffer consisting of 20 mM TRIS-HCl, pH 8, 300 mM NaCl, 2 mM mercaptoethanol, 300 mM imidazole and size exclusion chromatography in running buffer (20 mM TRIS-HCl, pH 8, 100 mM NaCl, 2 mM DTT). The peak fraction was collected and concentrated to 2.5 mg/mL.

T1 sequence (Q86WV6 with tags, fused parts or gaps H232R): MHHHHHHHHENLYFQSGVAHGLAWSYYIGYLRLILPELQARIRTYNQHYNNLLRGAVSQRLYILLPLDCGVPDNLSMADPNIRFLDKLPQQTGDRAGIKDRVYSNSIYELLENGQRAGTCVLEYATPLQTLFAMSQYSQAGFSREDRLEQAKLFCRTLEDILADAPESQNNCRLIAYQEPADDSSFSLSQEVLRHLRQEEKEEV

| SMILES | DSF [K] |
| --- | --- |
| Cc1nc2nn(Cc3cccnc3)cc2cc1-n1nc(-c2cccc3nn(C[C@H](O)c4ccccc4)cc23)c(C(C)C)c1C [Example 6, (1R)-2-[4-(5-methyl-1-{6-methyl-2-[(pyridin-3-yl)methyl]-2H-pyrazolo[3,4-b]pyridin-5-yl}-4-(propan-2-yl)-1H-pyrazol-3-yl)-2H-indazol-2-yl]-1-phenylethan-1-ol] | 29 |
| Cc1nc2nn(CCCN3CCN(C)CC3)cc2cc1-n1nc(-c2cccc3nn(C[C@H](O)c4ccccc4)cc23)c(C(C)C)c1C [Example 7, (1R)-2-[4-(5-methyl-1-{6-methyl-2-[3-(4-methylpiperazin-1-yl)propyl]-2H-pyrazolo[3,4-b]pyridin-5-yl}-4-(propan-2-yl)-1H-pyrazol-3-yl)-2H-indazol-2-yl]-1-phenylethan-1-ol] | 25 |
| Cc1nc2nn(CCCCO)cc2cc1-n1nc(-c2cccc3nn(C[C@H](O)c4ccccc4)cc23)c(C(C)C)c1C [Example 12, 4-[5-(3-{2-[(2R)-2-hydroxy-2-phenylethyl]-2H-indazol-4-yl}-5-methyl-4-(propan-2-yl)-1H-pyrazol-1-yl)-6-methyl-2H-pyrazolo[3,4-b]pyridin-2-yl]butan-1-ol] | 29 |
| Cc1nc2nn(C3CCOC3)cc2cc1-n1nc(-c2cccc3nn(C[C@H](O)c4ccccc4)cc23)c(C(C)C)c1C (stereo partly drawn) [Example 14, (1R)-2-(4-{5-methyl-1-[6-methyl-2-(oxolan-3-yl)-2H-pyrazolo[3,4-b]pyridin-5-yl]-4-(propan-2-yl)-1H-pyrazol-3-yl}-2H-indazol-2-yl)-1-phenylethan-1-ol] | 28 |
| Cc1c(C(C)C)c(-c2cccc3nn(C[C@H](O)c4ccc(OCCN5CCOCC5)cc4)cc23)nn1-c1cc2cn(C)nc2nc1C1CC1 [Example 15, (1R)-2-[4-(1-{6-cyclopropyl-2-methyl-2H-pyrazolo[3,4-b]pyridin-5-yl}-5-methyl-4-(propan-2-yl)-1H-pyrazol-3-yl)-2H-indazol-2-yl]-1-{4-[2-(morpholin-4-yl)ethoxy]phenyl}ethan-1-ol] | 30 |
| COCCn1cc2cc(-n3nc(-c4cccc5nn(C[C@H](O)c6ccccc6)cc45)c(C(C)C)c3C)c(C)nc2n1 [Example 16, (1R)-2-(4-{1-[2-(2-methoxyethyl)-6-methyl-2H-pyrazolo[3,4-b]pyridin-5-yl]-5-methyl-4-(propan-2-yl)-1H-pyrazol-3-yl}-2H-indazol-2-yl)-1-phenylethan-1-ol] | 28 |
| COCc1nc2nn(C)cc2cc1-n1nc(-c2cccc3nn(C[C@H](O)c4ccccc4)cc23)c(C(C)C)c1C [Example 17, (1R)-2-(4-{1-[6-(methoxymethyl)-2-methyl-2H-pyrazolo[3,4-b]pyridin-5-yl]-5-methyl-4-(propan-2-yl)-1H-pyrazol-3-yl}-2H-indazol-2-yl)-1-phenylethan-1-ol] | 27 |
| Cc1nc2nn(C(C)C)cc2cc1-n1nc(-c2cccc3nn(C[C@H](O)c4ccccc4)cc23)c(C(C)C)c1C [Example 18, (1R)-2-(4-{5-methyl-1-[6-methyl-2-(propan-2-yl)-2H-pyrazolo[3,4-b]pyridin-5-yl]-4-(propan-2-yl)-1H-pyrazol-3-yl}-2H-indazol-2-yl)-1-phenylethan-1-ol] | 28 |
| Cc1nc2nn(CCCN3CCCC3=O)cc2cc1-n1nc(-c2cccc3nn(C[C@H](O)c4ccccc4)cc23)c(C(C)C)c1C [Example 21, 1-{3-[5-(3-{2-[(2R)-2-hydroxy-2-phenylethyl]-2H-indazol-4-yl}-5-methyl-4-(propan-2-yl)-1H-pyrazol-1-yl)-6-methyl-2H-pyrazolo[3,4-b]pyridin-2-yl]propyl}pyrrolidin-2-one] | 30 |
| CC(C)c1nc2nn(C)cc2cc1-c1nc(-c2cccc3nn(C[S@@+]([O-])c4ccccc4)cc23)c(C2CC2)n1C [Example 22, 2-{[(S)-benzenesulfinyl]methyl}-4-{5-cyclopropyl-1-methyl-2-[2-methyl-6-(propan-2-yl)-2H-pyrazolo[3,4-b]pyridin-5-yl]-1H-imidazol-4-yl}-2H-indazole] | 33 |

Other lines, results leading:

| DSF [K] | SMILES |
| --- | --- |
| 26 | Cc1nc2nn(CCN3CCOCC3)cc2cc1-n1nc(-c2cccc3nn(C[C@H](O)c4ccccc4)cc23)c(C(C)C)c1C [Example 1, (1R)-2-[4-(5-methyl-1-{6-methyl-2-[2-(morpholin-4-yl)ethyl]-2H-pyrazolo[3,4-b]pyridin-5-yl}-4-(propan-2-yl)-1H-pyrazol-3-yl)-2H-indazol-2-yl]-1-phenylethan-1-ol] |
| 28 | Cc1nc2nn(CCCC#N)cc2cc1-n1nc(-c2cccc3nn(C[C@H](O)c4ccccc4)cc23)c(C(C)C)c1C [Example 2, 4-[5-(3-{2-[(2R)-2-hydroxy-2-phenylethyl]-2H-indazol-4-yl}-5-methyl-4-(propan-2-yl)-1H-pyrazol-1-yl)-6-methyl-2H-pyrazolo[3,4-b]pyridin-2-yl]butanenitrile] |
| 24 | Cc1nc2nn(C)cc2cc1-n1nc(-c2cccc3nn(C[C@H](OCCO)c4ccccc4)cc23)c(C(C)C)c1C [Example 8, 2-[(1R)-2-[4-(1-{2,6-dimethyl-2H-pyrazolo[3,4-b]pyridin-5-yl}-5-methyl-4-(propan-2-yl)-1H-pyrazol-3-yl)-2H-indazol-2-yl]-1-phenylethoxy]ethan-1-ol] |
| 33 | COc1ccc(Cn2cc3cc(-c4nc(-c5cccc6nn(C[C@H](O)c7ccccc7)cc56)c(C5CC5)n4C)c(C4CC4)nc3n2)cc1 [Example 9, (1R)-2-[4-(5-cyclopropyl-2-{6-cyclopropyl-2-[(4-methoxyphenyl)methyl]-2H-pyrazolo[3,4-b]pyridin-5-yl}-1-methyl-1H-imidazol-4-yl)-2H-indazol-2-yl]-1-phenylethan-1-ol] |
| 30 | Cn1c(-c2cc3cn(CCN4CCOCC4)nc3nc2C2CC2)nc(-c2cccc3nn(C[C@H](O)c4ccccc4)cc23)c1C1CC1 [Example 10, (1R)-2-[4-(5-cyclopropyl-2-{6-cyclopropyl-2-[2-(morpholin-4-yl)ethyl]-2H-pyrazolo[3,4-b]pyridin-5-yl}-1-methyl-1H-imidazol-4-yl)-2H-indazol-2-yl]-1-phenylethan-1-ol] |
| 30 | Cc1c(C(C)C)c(-c2cccc3nn(C[C@H](O)c4ccccc4)cc23)nn1-c1cc2cn(C)nc2nc1C1CCCO1 (stereo partly drawn) [Example 13, (1R)-2-(4-{5-methyl-1-[2-methyl-6-(oxolan-2-yl)-2H-pyrazolo[3,4-b]pyridin-5-yl]-4-(propan-2-yl)-1H-pyrazol-3-yl}-2H-indazol-2-yl)-1-phenylethan-1-ol] |
| 29 | Cc1c(C(C)C)c(-c2cccc3nn(C[C@H](O)c4ccccc4)cc23)nn1-c1cc2cn(C)nc2nc1C(C)O (stereo partly drawn) [Example 19, (1R)-2-(4-{1-[6-(1-hydroxyethyl)-2-methyl-2H-pyrazolo[3,4-b]pyridin-5-yl]-5-methyl-4-(propan-2-yl)-1H-pyrazol-3-yl}-2H-indazol-2-yl)-1-phenylethan-1-ol] |
| 27 | CSc1nc2nn(C)cc2cc1-n1nc(-c2cccc3nn(C[C@H](O)c4ccccc4)cc23)c(C(C)C)c1C [Example 20, (1R)-2-(4-{5-methyl-1-[2-methyl-6-(methylsulfanyl)-2H-pyrazolo[3,4-b]pyridin-5-yl]-4-(propan-2-yl)-1H-pyrazol-3-yl}-2H-indazol-2-yl)-1-phenylethan-1-ol] |
